One may read the IC50 as the concentration needed to halve the response being measured. One may read the EC50 as the concentration giving half of the maximal effect. High values mean lower potency in that assay, low ones higher potency in that assay. The Kd is a measure of binding affinity in units of concentration.

One experiment deals with Phytophthora infestans. The experiment is described as follows: microbe, parasite or virus in culture. The class given is cell-based. The settings on record: read-out: In vivo IC50 P. infestens.
The test system of a further experiment is Botrytis cinerea. The experiment is described as follows: Fungicidal activity, microtiter plate agar growth assay. The settings on record: read-out: In vivo IC50 B. cinerea. It is filed as cell-based.
The subject of the next experiment is Stagonospora nodorum. The experiment is described as above. It is filed as cell-based. The settings on record: Parastagonospora nodorum, read-out: In vivo IC50 S. nodorum.
The target in a further experiment is Ustilago maydis ACC (Mycosarcoma maydis, UniProt A0A0D1DYD5). The experiment is described as follows: biochemical. The class given is biochemical.
In the next experiment the test system is Septoria tritici. As to the kind of experiment: Fungicidal activity, microtiter plate agar growth assay. The class given is cell-based. The settings on record: Zymoseptoria tritici, read-out: In vivo IC50 S. tritici.
The next experiment concerns the target yeast wt BC domain (Saccharomyces cerevisiae, UniProt Q00955). The experiment is described as follows: Tryptophan fluorescence binding assay. As to conditions: for EC50: protein concentration = 200 nM. As for the experimental part: The soraphen binding pocket contains a tryptophan residue. Thus, tryptophan fluorescence may be used to directly monitor binding of a ligand to this site. […] We conducted a similar assay in a 96-well format. Briefly, 200 nM protein in 100 mM Tris pH 8 containing 100 mM NaCl and 0.01% Tween 20 (v/v) was incubated in the presence of various amounts of test compounds dissolved in DMSO (1% v/v final concentration). Tryptophan fluorescence at […] was measured in a Pherastar plate reader (BMG Labtech) using 280 nm excitation.

Another experiment addresses Ustilago maydis K53R ACC (Mycosarcoma maydis, UniProt A0A0D1DYD5, K53R). As to the kind of experiment: biochemical. It is filed as biochemical. As to conditions: K53R mutation that confers resistance to soraphen.
In experiment [1] the target is T1, rat liver ACC (Rattus norvegicus, UniProt P11497). The experiment is described as follows: Rat liver ACC activity, [14C]bicarbonate incorporation. It is filed as biochemical. From the text: (§1) To test the effect of compounds against mammalian ACC both human and rat enzyme preparations were employed. ACC was purified from rat liver according to published protocols (Rubink and Winder, J Appl Physiol 98, 1221-1227 (2005); Trumble et al., Eur J Biochem 231, 192-198 (1995)). Rat liver contains both ACC1 and ACC2 in a ˜85:15 ratio, respectively (Harwood et al., J Biol Chem 278, 37099-37111 (2003)).

The target of another experiment is T2, hACC1 (Homo sapiens, UniProt Q13085).
T2 construct: we cloned full-length cDNAs for both the human isoforms (hACC1 and hACC2); His tag (from pET30a) (C); made in house; host or cells: sf9 insect cells (baculovirus)
As to the kind of experiment: Recombinant human ACC1 activity, [14C]bicarbonate incorporation. As to conditions: Table II; read-out: Enzyme Activity IC50 Human ACC1. It is filed as biochemical.

The next experiment deals with T3, hACC2 (Homo sapiens, UniProt O00763).
T3 construct: delete amino acids 1-148 and add Met-Gly in front of Lys149 in the final product; His tag (from pET30a) (C); made in house; host or cells: sf9 insect cells (baculovirus)
T3 sequence (O00763 with tags, fused parts or gaps): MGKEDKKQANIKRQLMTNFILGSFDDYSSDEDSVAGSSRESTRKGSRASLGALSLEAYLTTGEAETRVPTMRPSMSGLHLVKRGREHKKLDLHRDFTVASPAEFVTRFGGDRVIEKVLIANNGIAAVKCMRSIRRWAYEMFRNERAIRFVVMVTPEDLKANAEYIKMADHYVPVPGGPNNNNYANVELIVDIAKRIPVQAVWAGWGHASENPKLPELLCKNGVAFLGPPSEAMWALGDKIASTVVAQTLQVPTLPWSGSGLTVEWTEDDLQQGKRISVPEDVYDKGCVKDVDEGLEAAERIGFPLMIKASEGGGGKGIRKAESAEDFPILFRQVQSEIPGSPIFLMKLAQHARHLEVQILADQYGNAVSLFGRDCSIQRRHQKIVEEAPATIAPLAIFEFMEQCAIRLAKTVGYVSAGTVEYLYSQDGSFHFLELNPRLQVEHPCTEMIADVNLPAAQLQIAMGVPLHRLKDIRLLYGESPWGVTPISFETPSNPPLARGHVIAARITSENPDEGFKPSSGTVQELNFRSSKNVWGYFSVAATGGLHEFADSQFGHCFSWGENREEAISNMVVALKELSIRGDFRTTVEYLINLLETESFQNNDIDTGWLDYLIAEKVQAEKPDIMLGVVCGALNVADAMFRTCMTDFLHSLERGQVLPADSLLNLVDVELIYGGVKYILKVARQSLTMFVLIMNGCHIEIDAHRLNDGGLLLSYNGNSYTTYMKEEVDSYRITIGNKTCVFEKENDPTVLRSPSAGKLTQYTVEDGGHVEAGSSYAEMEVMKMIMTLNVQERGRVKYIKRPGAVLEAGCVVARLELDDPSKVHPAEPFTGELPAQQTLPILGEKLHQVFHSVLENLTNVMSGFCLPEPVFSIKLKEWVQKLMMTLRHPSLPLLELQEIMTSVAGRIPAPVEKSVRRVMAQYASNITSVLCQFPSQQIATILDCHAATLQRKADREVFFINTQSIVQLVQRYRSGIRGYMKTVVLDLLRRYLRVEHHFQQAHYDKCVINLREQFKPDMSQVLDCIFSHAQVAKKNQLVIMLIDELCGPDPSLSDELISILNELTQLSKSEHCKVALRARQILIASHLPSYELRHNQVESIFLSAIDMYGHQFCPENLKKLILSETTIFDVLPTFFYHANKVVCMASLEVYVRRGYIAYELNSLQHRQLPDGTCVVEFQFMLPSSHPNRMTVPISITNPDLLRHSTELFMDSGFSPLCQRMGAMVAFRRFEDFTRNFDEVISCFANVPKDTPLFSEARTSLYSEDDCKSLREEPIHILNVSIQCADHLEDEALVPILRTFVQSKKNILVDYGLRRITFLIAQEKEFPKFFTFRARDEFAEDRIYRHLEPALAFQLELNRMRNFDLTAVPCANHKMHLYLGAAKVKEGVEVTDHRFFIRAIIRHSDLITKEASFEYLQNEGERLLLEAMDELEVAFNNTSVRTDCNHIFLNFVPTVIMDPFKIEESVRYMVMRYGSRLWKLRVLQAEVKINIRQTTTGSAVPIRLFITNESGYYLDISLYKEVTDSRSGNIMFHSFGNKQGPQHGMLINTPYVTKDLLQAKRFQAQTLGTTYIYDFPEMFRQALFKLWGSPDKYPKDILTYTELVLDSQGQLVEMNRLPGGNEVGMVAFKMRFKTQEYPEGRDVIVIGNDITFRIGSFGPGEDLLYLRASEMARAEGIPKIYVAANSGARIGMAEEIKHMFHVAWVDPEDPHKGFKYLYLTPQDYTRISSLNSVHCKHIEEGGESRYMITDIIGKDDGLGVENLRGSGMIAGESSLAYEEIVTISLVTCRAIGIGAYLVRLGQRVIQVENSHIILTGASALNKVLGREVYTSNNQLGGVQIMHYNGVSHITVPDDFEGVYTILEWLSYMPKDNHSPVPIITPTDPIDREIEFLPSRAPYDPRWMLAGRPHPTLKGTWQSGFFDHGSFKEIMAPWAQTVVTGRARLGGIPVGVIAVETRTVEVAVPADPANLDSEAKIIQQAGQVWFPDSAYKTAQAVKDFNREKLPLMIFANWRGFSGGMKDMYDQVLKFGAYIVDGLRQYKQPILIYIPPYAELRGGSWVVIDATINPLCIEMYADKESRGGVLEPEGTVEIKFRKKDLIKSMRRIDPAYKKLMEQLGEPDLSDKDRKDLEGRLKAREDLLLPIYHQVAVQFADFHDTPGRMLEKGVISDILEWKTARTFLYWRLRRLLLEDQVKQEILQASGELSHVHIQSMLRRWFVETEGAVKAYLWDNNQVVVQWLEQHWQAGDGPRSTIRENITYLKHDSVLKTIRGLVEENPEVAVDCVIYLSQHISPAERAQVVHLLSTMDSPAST
As to the kind of experiment: Recombinant human ACC2 activity, [14C]bicarbonate incorporation. It is filed as biochemical. The settings on record: Table II; read-out: Enzyme Activity IC50 Human ACC2.

In experiment [2] the target is T1, rat liver ACC. As to the kind of experiment: FP saturation binding assay.
Source text: as §1

For another experiment, the system named is bacterial BC subunits. The settings on record: literature; cited from earlier work.
Another experiment concerns the target yeast BC domain (Saccharomyces cerevisiae, UniProt Q00955). The settings on record: cited from earlier work.
Experiment [3] concerns the target BC domain of eukaryotic ACCs. As to conditions: literature; cited from earlier work.
Where [4] appears, read: fungal growth on agar, 20° C., 3-5 days.
[5] abbreviates: Table I, read-out: In vitro IC50 U. maydis ACC activity.
Setting [6] is: Table II, enzyme concentration 50 nM, read-out: Enzyme Activity IC50 U. maydis ACC.
[7] abbreviates: Table II, enzyme concentration 25 nM, ND = none detected, read-out: Enzyme Activity IC50 Rat liver ACC.

Read-outs that look alike come from different tables or passages of the source.

Ustilago maydis K53R ACC, sequence (A0A0D1DYD5 entry or part of it K53R): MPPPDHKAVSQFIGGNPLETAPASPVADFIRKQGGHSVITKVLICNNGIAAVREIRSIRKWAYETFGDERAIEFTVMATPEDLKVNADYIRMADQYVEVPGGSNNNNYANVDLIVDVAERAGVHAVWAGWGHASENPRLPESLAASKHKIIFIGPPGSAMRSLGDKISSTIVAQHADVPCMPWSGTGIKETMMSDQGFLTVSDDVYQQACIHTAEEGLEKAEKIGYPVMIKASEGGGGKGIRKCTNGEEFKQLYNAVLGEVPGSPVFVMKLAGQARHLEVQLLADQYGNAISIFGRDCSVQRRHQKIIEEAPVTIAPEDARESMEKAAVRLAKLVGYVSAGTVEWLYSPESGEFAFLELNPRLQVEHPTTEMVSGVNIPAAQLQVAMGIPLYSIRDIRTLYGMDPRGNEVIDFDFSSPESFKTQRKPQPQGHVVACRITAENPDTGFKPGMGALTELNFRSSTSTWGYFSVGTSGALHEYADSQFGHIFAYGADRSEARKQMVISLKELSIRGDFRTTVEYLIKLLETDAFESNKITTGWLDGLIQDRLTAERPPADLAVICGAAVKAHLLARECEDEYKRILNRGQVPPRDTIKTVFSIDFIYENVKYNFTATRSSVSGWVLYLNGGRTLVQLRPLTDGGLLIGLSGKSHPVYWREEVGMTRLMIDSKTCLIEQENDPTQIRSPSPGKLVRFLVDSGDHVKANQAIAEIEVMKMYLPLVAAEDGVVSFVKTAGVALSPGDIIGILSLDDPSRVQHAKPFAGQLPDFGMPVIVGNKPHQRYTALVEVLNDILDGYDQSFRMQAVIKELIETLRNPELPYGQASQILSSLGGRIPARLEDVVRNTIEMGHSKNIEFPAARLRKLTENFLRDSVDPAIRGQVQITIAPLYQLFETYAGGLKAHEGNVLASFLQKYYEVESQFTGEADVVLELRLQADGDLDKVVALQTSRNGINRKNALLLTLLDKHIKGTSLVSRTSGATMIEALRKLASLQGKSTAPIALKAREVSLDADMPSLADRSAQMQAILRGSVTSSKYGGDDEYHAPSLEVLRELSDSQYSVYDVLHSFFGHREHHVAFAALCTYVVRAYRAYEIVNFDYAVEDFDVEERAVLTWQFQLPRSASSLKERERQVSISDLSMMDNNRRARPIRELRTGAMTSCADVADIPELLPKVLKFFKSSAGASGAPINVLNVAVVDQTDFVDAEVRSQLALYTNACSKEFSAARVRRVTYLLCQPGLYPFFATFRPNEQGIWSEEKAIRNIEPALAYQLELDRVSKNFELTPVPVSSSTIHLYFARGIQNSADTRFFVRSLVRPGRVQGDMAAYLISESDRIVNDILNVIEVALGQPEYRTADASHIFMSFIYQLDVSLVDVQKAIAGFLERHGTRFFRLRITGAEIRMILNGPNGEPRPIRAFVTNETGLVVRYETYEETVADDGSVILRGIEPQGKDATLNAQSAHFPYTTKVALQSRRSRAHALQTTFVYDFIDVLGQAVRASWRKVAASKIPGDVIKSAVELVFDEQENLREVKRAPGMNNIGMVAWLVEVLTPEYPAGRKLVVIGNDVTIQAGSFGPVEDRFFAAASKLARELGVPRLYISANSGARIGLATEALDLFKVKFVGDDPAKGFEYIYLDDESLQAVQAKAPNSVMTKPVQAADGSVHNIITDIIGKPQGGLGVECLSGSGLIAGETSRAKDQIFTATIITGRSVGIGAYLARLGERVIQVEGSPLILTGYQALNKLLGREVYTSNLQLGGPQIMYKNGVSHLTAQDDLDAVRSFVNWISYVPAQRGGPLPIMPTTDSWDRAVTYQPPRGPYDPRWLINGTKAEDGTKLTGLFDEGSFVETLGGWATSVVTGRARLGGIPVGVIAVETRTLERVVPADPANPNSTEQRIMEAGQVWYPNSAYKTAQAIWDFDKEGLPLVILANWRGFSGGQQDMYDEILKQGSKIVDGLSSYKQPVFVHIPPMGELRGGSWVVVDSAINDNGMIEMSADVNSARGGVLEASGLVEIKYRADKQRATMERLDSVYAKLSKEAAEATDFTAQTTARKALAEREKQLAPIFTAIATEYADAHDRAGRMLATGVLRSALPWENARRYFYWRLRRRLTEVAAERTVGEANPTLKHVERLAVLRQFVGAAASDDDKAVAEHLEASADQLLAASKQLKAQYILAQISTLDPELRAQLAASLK
yeast wt BC domain, sequence (Q00955 58-567): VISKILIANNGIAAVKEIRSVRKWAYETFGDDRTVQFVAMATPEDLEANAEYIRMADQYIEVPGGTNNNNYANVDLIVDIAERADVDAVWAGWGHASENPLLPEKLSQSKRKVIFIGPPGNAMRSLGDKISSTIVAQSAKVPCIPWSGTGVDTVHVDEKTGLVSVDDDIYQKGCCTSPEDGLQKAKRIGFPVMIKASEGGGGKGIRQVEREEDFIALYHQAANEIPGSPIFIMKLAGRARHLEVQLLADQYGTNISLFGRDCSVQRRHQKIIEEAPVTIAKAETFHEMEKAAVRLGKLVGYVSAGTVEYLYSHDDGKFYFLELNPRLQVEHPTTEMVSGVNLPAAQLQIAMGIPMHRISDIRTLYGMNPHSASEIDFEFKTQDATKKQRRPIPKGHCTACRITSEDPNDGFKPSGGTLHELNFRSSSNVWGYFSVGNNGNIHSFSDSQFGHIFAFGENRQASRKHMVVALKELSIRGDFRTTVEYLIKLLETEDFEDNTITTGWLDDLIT

For `C[N+]1(Cc2ccc(Cl)c(Cl)c2)CCN(CCCn2c(SCc3ccc(Cl)c(Cl)c3)nc3ccc(Br)cc3c2=O)CC1` [Compound 7], the half-inhibitory concentration (IC50) in the experiment with Phytophthora infestans was 200 µM; in the experiment with Botrytis cinerea (setting [4]) it was 4300 nM; in the experiment on Stagonospora nodorum (setting [4]), 8 µM; at Ustilago maydis ACC (setting [5]), 17 µM; in the experiment with Septoria tritici (setting [4]) it was 4.8 µM.

For `COc1cc2c(=O)n(CCCC[N+](C)(C)Cc3ccc(Br)cc3)c(=S)n(Cc3ccc(Br)cc3)c2c(OC)c1OC` [Compound 15], the IC50 with Phytophthora infestans came out at 18 µM; with Botrytis cinerea (setting [4]), 2000 nM; in the experiment with Stagonospora nodorum (setting [4]), 8 µM; on Ustilago maydis ACC (setting [5]), 16 µM; with Septoria tritici (setting [4]), 4 µM.

`Cc1cc(C)cc(CN(CCCC[N+](C)(C)Cc2cc(C)cc(C)c2)Cc2cc(C)cc(C)c2)c1` [Compound 19]: the half-inhibitory concentration (IC50) in the experiment with Phytophthora infestans is 25 µM; in the experiment with Botrytis cinerea (setting [4]) it was 7000 nM; in the experiment with Stagonospora nodorum (setting [4]), 64 µM; at Ustilago maydis ACC (setting [5]), 21 µM; with Septoria tritici (setting [4]), 22 µM.

In the case of `COc1cc2c(=O)n(CCCC[N+](C)(CCC[N+](C)(C)Cc3cc(C)cc(C)c3)Cc3cc(C)cc(C)c3)c(SCc3cc(C)cc(C)c3)nc2c(OC)c1OC` (centres unmarked) [Compound 22], the half-inhibitory concentration (IC50) in the experiment with Phytophthora infestans was 35 µM; in the experiment on Botrytis cinerea (setting [4]) it was 6700 nM; in the experiment with Stagonospora nodorum (setting [4]) it was 4.6 µM; at Ustilago maydis ACC (setting [5]) it was 12 µM; with Septoria tritici (setting [4]), 4.4 µM.

`Cc1cc(C)cc(CN(CC[N+](C)(C)Cc2cc(C)cc(C)c2)Cc2cc(C)cc(C)c2)c1` [Compound 25]: the concentration for half-maximal inhibition (IC50) is 18.2 µM with Phytophthora infestans; 1400 nM in the experiment with Botrytis cinerea (setting [4]); 5.8 µM in the experiment on Stagonospora nodorum (setting [4]); 42 µM at Ustilago maydis ACC (setting [5]); 10 µM in the experiment on Septoria tritici (setting [4]).

In the case of `Cc1cc(C)cc(CN(CCC[N+](C)(C)Cc2cc(C)cc(C)c2)Cc2cc(C)cc(C)c2)c1` [Compound 26], the concentration for half-maximal inhibition (IC50) came to 23.5 µM with Phytophthora infestans; 1000 nM with Botrytis cinerea (setting [4]); 5 µM with Stagonospora nodorum (setting [4]); 39 µM at Ustilago maydis ACC (setting [5]); 6 µM with Septoria tritici (setting [4]).

Take `CC[N+](CC)(CCCCN(Cc1cc(C)cc(C)c1)Cc1cc(C)cc(C)c1)Cc1cc(C)cc(C)c1.[Br-]` [Compound 28, Diethyl(3,5-dimethylbenzyl)[bis-(3,5-dimethylbenzyl)aminobutyl]ammonium formate]: the “Effect on tryptophan fluorescence of yeast BC domain” value on yeast wt BC domain is “quenched”. The molecule further had a concentration giving a half-maximal response (EC50) on yeast wt BC domain of 11 µM. The concentration for half-maximal inhibition (IC50) in the experiment with Phytophthora infestans came out at 21.5 µM; in the experiment with Botrytis cinerea, 1800 nM; with Stagonospora nodorum, 7.2 µM; against Ustilago maydis ACC (Enzyme activity IC50 U. maydis wt ACC), 11 µM; at Ustilago maydis ACC (In vitro IC50 U. maydis ACC activity), 17 µM; in the experiment with Septoria tritici, 11 µM. The “Effect of K53R mutation on inhibition of ACC by compound” value at Ustilago maydis K53R ACC is “confers resistance to inhibition”.

Take `Cc1cc(C)cc(CN(CCCC[N+](C)(C)Cc2cc(C)cc(C)c2)S(=O)(=O)c2ccc(Br)cc2)c1` [Compound 61]: at Ustilago maydis ACC (setting [6]), the half-inhibitory concentration (IC50) stood at 9 µM.

Turning to `Cc1cc(C)cc(CN(CCCC[N+](C)(C)Cc2cc(C)cc(C)c2)C(=S)Nc2c(F)cccc2F)c1` [Compound 74], at Ustilago maydis ACC (setting [6]), the IC50 is 9 µM.

On to `CC[N+](CC)(CCCCN(Cc1cc(C)cc(C)c1)C(=O)c1cc(C)cc(C)c1)Cc1cc(C)cc(C)c1` [Compound 76], for which, at Ustilago maydis ACC (setting [6]), the concentration for half-maximal inhibition (IC50) came to 30 µM.

Regarding `CC[N+](CC)(CCCCN(Cc1cc(C)cc(C)c1)S(=O)(=O)c1ccc2ccccc2c1)Cc1cc(C)cc(C)c1` [Compound 85, Diethyl(3,5-dimethylbenzyl)[N-(3,5-dimethylbenzyl)-2-naphthalenesulfonamidobutyl]ammonium bromide], the values for the IC50 on rat liver ACC [1] (setting [7]) and at Ustilago maydis ACC (setting [6]) were 43 µM and 15 µM, respectively.

On to `CC[N+](CC)(CCCCN(Cc1cc(C)cc(C)c1)C(=O)c1ccc2ccccc2c1)Cc1cc(C)cc(C)c1` [Compound 133, Diethyl(3,5-dimethylbenzyl)[N-(3,5-dimethylbenzyl)-2-naphthalenecarboxamidobutyl]ammonium bromide], for which the IC50 on Ustilago maydis ACC (setting [6]) was 3 µM.

As for `CC[N+](CC)(CCCCN(Cc1ccc2c(c1)OCCO2)S(=O)(=O)c1ccc2ccccc2c1)Cc1cc(C)cc(C)c1.[Br-]` [Compound 184], the “Effect of K53R mutation on inhibition of ACC by compound” value at Ustilago maydis K53R ACC was “confers resistance to inhibition”.

In the case of `CC[N+](CC)(CCCCN(Cc1ccc2ccccc2c1)S(=O)(=O)c1cccc(Cl)c1Cl)Cc1cc(C)cc(C)c1` [Compound 237], the concentration for half-maximal inhibition (IC50) at hACC1 was 12000 nM; on hACC2, 50 µM; on Ustilago maydis ACC (setting [6]) it was 1.4 µM.

Take `CC[N+](CC)(CCCCN(Cc1ccc2ccccc2c1)C(=O)c1cc2cccc(OC)c2cc1OC)Cc1cc(C)cc(C)c1` [Compound 260]: the half-maximal inhibitory concentration (IC50) worked out at 2800 nM at hACC1, 11 µM at hACC2 and 1.4 µM at Ustilago maydis ACC (setting [6]).

Regarding `CC[N+](CC)(CCCCN(Cc1ccc2ccccc2c1)C(=O)c1sc2cccc(Cl)c2c1Cl)Cc1cc(C)cc(C)c1.[Br-]` [Compound 322], the IC50 on hACC1 amounted to 250 nM; on hACC2, 1 µM; at Ustilago maydis ACC (setting [6]) it was 0.04 µM. Besides, on Ustilago maydis K53R ACC, the “Effect of K53R mutation on inhibition of ACC by compound” value is listed as “confers resistance to inhibition”.

Consider `CC[N+](CC)(CCCCN(Cc1ccc2ccccc2c1)C(=O)c1sc2c(Cl)c(OC)ccc2c1Cl)Cc1cc(C)cc(C)c1` [Compound 326], for which the figures for the 50% inhibitory concentration (IC50) on hACC1, on hACC2 and at Ustilago maydis ACC (setting [6]) were 150 nM, 1.5 µM and 0.18 µM, respectively.

Take `CO[C@H]1CCCC[C@@H](c2ccccc2)OC(=O)[C@@H](C)[C@@]2(O)O[C@H]([C@@H](C)[C@H](O)[C@H]2OC)[C@@H](C)/C=C/[C@H]1OC` [soraphen A, Soraphen A, reference compound]: the Kd at rat liver ACC [2] is 3.2 nM; at yeast BC domain, 1 nM; in [3], roughly 1 nM. Further, at yeast wt BC domain, the response was half-maximal at 0.09 µM (EC50). Also, the 50% inhibitory concentration (IC50) on hACC1 is 11 nM; at rat liver ACC [1] (tight binding conditions, nominal enzyme concentration 25 nM, read-out: IC50 rat liver ACC activity), 0.014 µM; at hACC2, 0.0027 µM; at Ustilago maydis ACC (setting [6]), 0.017 µM; at Ustilago maydis ACC (Table III, enzyme concentration = 50 nM, read-out: Enzyme activity IC50 U. maydis wt ACC), 0.017 µM; on Ustilago maydis ACC (read-out: IC50 inhibition of fungal ACC), 0.017 µM. For the same molecule, in the experiment on bacterial BC subunits, the “Effect on bacterial BC subunits” value is “no effect”.

For “Diethyl(3,5-dimethylbenzyl)[N-(2-naphthylmethyl)-2-naphthalenesulfonamidobutyl]ammonium bromide [Compound 200]”, the IC50 amounted to 7600 nM on hACC1, 11 µM on rat liver ACC [1] (setting [7]), 22 µM on hACC2 and 0.56 µM at Ustilago maydis ACC (setting [6]).

These data come from patent publication US20080200461A1, “MODULATORS OF ACETYL-COENZYME A CARBOXYLASE AND METHODS OF USE THEREOF” (Cropsolution, Inc., priority 2007, published 2008).
